Among the data in the supplement of paper PMC10307832 are relative viability values, retold here.

Common to all, as to assay: relative viability (nuclei count vs DMSO), 5 days (fraction); higher = more cells survive
In one assay the test system is NCI-H2342. An outline of the steps: (§1)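 Cells from lung cancer lines were seeded into 1536-well plates and, one day later, dosed by pin tool. Treatments were either a single drug or a fixed dose of an anchor drug with five library-drug doses (not always all listed) in √10 steps. After 5 days, nuclei were stained in a one-step fixation (final 0.05% Triton X-100, 1% formaldehyde, 1 ug/ml Hoechst) and counted on 4× images, and relative viability is the treated-to-vehicle nuclei ratio, as the median of duplicate plates.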

Another assay relates to NCI-H1623. An outline of the steps:
as §1

The next assay deals with NCI-H1563. An outline of the steps: as §1
A further assay relates to NCI-H522. An outline of the steps:
as §1

A further assay has as its system SW 900. An outline of the steps: as §1
Another assay concerns NCI-H1648. The gist of the method: as §1
The subject of a further assay is NCI-H1703. An outline of the steps:
as §1

A further assay concerns A549. An outline of the steps:
as §1

A further assay has as its system IA-LM. The gist of the method: as §1

The structures appear in SMILES notation.

With `Cc1cnc(-c2cnc(NCCNc3ccc(C#N)cn3)nc2-c2ccc(Cl)cc2Cl)[nH]1` + CCNC(=O)c1noc(-c2cc(C(C)C)c(O)cc2O)c1-c1ccc(CN2CCOCC2)cc1 [Luminespib] (partner 0.01 µM), the relative viability was 0.825 with NCI-H2342 (first compound 0.08 µM); 0.654 in the assay on NCI-H2342 (first compound 0.253 µM); 0.694 with NCI-H2342 (first compound 0.8 µM); 0.584 in the assay with NCI-H2342 (first compound 2.53 µM); 0.594 in the assay on NCI-H1623 (first compound 0.08 µM); 0.622 in the assay with NCI-H1623 (first compound 0.253 µM). The relative viability in the assay with NCI-H1623 (first compound 0.8 µM) came to 0.542; in the assay with NCI-H1623 (first compound 2.53 µM), 0.507; in the assay on NCI-H1563 (first compound 0.08 µM), 0.473; in the assay with NCI-H1563 (first compound 0.253 µM), 0.535; with NCI-H1563 (first compound 0.8 µM) it was 0.499; in the assay with NCI-H1563 (first compound 2.53 µM) it was 0.439. In addition, the relative viability was 1.14 in the assay with NCI-H522 (first compound 0.08 µM); 1.02 in the assay with NCI-H522 (first compound 0.253 µM); 0.99 with NCI-H522 (first compound 0.8 µM); 1.31 in the assay with NCI-H522 (first compound 2.53 µM); 0.196 with SW 900 (first compound 0.08 µM); 0.168 in the assay on SW 900 (first compound 0.253 µM). Moreover, the values for the relative viability in the assay on SW 900 (first compound 0.8 µM) and in the assay on SW 900 (first compound 2.53 µM) were 0.206 and 0.203, respectively.
For the compound `Cc1cnc(-c2cnc(NCCNc3ccc(C#N)cn3)nc2-c2ccc(Cl)cc2Cl)[nH]1` + Cc1nc(Nc2ncc(C(=O)Nc3c(C)cccc3Cl)s2)cc(N2CCN(CCO)CC2)n1 [Dasatinib] (partner 0.075 µM), the relative viability in the assay on NCI-H2342 (first compound 0.08 µM) amounted to 0.325; in the assay on NCI-H2342 (first compound 0.253 µM) it was 0.321; in the assay on NCI-H2342 (first compound 0.8 µM) it was 0.301; in the assay on NCI-H2342 (first compound 2.53 µM) it was 0.278; with NCI-H1623 (first compound 0.08 µM), 0.5; in the assay with NCI-H1623 (first compound 0.253 µM), 0.536. Moreover, the relative viability with NCI-H1623 (first compound 0.8 µM) turned out to be 0.472; in the assay on NCI-H1623 (first compound 2.53 µM) it was 0.516; in the assay with NCI-H1563 (first compound 0.08 µM), 0.439; in the assay on NCI-H1563 (first compound 0.253 µM), 0.471; in the assay on NCI-H1563 (first compound 0.8 µM), 0.51; with NCI-H1563 (first compound 2.53 µM) it was 0.429. The relative viability turned out to be 0.845 with NCI-H522 (first compound 0.08 µM); 0.996 in the assay on NCI-H522 (first compound 0.253 µM); 0.737 in the assay on NCI-H522 (first compound 0.8 µM); 0.844 in the assay on NCI-H522 (first compound 2.53 µM); 0.64 with SW 900 (first compound 0.08 µM); 0.425 with SW 900 (first compound 0.253 µM). Besides, the relative viability with SW 900 (first compound 0.8 µM) stood at 0.343; in the assay with SW 900 (first compound 2.53 µM) it was 0.404.
As for `Cc1cnc(-c2cnc(NCCNc3ccc(C#N)cn3)nc2-c2ccc(Cl)cc2Cl)[nH]1` + NC(=O)Nc1cc(-c2cccc(F)c2)sc1C(=O)N[C@H]1CCCNC1 [AZD7762] (partner 0.2 µM), the relative viability in the assay on NCI-H1648 (first compound 0.08 µM) came out at 0.542; with NCI-H1648 (first compound 0.253 µM), 0.579; in the assay on NCI-H1648 (first compound 0.8 µM), 0.643; in the assay with NCI-H1648 (first compound 2.53 µM) it was 0.624; with NCI-H2342 (first compound 0.08 µM) it was 0.516; in the assay with NCI-H2342 (first compound 0.253 µM) it was 0.473. Besides, the relative viability is 0.484 in the assay on NCI-H2342 (first compound 0.8 µM); 0.46 in the assay with NCI-H2342 (first compound 2.53 µM); 0.868 in the assay with NCI-H522 (first compound 0.08 µM); 0.798 in the assay on NCI-H522 (first compound 0.253 µM); 0.768 in the assay on NCI-H522 (first compound 0.8 µM); 0.789 in the assay with NCI-H522 (first compound 2.53 µM). Moreover, the relative viability was 0.14 in the assay on NCI-H1703 (first compound 0.08 µM); 0.128 in the assay with NCI-H1703 (first compound 0.253 µM); 0.13 in the assay with NCI-H1703 (first compound 2.53 µM); 0.736 with SW 900 (first compound 0.08 µM); 0.548 in the assay with SW 900 (first compound 0.253 µM); 0.507 in the assay on SW 900 (first compound 0.8 µM). Besides, in the assay with SW 900 (first compound 2.53 µM), the relative viability was found to be 0.452.
In the case of `Cc1cnc(-c2cnc(NCCNc3ccc(C#N)cn3)nc2-c2ccc(Cl)cc2Cl)[nH]1` + Nc1ncn([C@H]2C[C@H](O)[C@@H](CO)O2)c(=O)n1 [Decitabine] (partner 2 µM), the relative viability was 0.444 in the assay with NCI-H1648 (first compound 0.08 µM); 0.453 with NCI-H1648 (first compound 0.253 µM); 0.554 in the assay on NCI-H1648 (first compound 0.8 µM); 0.541 in the assay with NCI-H1648 (first compound 2.53 µM); 0.257 in the assay on A549 (first compound 0.08 µM); 0.254 in the assay on A549 (first compound 0.253 µM). The relative viability in the assay with A549 (first compound 0.8 µM) is 0.262; in the assay on A549 (first compound 2.53 µM) it was 0.316; in the assay with NCI-H2342 (first compound 0.08 µM) it was 0.727; with NCI-H2342 (first compound 0.253 µM), 0.548; in the assay on NCI-H2342 (first compound 0.8 µM) it was 0.671; in the assay with NCI-H2342 (first compound 2.53 µM), 0.66. Moreover, the relative viability in the assay with NCI-H522 (first compound 0.08 µM) worked out at 0.779; in the assay on NCI-H522 (first compound 0.253 µM) it was 0.68; with NCI-H522 (first compound 0.8 µM), 0.557; in the assay with NCI-H522 (first compound 2.53 µM), 0.63; with SW 900 (first compound 0.08 µM) it was 0.523; with SW 900 (first compound 0.253 µM), 0.436. Also, the relative viability turned out to be 0.442 in the assay with SW 900 (first compound 0.8 µM) and 0.393 in the assay with SW 900 (first compound 2.53 µM).
For `Cc1cnc(-c2cnc(NCCNc3ccc(C#N)cn3)nc2-c2ccc(Cl)cc2Cl)[nH]1` + O=C(CCCCCCC(=O)Nc1ccccc1)NO [Vorinostat] (partner 1 µM), the relative viability in the assay on NCI-H1648 (first compound 0.08 µM) amounted to 0.718; in the assay on NCI-H1648 (first compound 0.253 µM), 0.516; in the assay with NCI-H1648 (first compound 0.8 µM), 0.241; with NCI-H1648 (first compound 2.53 µM) it was 0.327; in the assay with IA-LM (first compound 0.08 µM), 1.16; in the assay with IA-LM (first compound 0.8 µM), 0.973. The relative viability with IA-LM (first compound 2.53 µM) came out at 0.888; in the assay on NCI-H2342 (first compound 0.08 µM), 0.753; with NCI-H2342 (first compound 0.253 µM), 0.685; in the assay with NCI-H2342 (first compound 0.8 µM) it was 0.838; in the assay on NCI-H2342 (first compound 2.53 µM), 0.648; in the assay with NCI-H522 (first compound 0.08 µM) it was 1.01. Besides, the relative viability in the assay with NCI-H522 (first compound 0.253 µM) came out at 0.947; with NCI-H522 (first compound 0.8 µM) it was 0.958; with NCI-H522 (first compound 2.53 µM) it was 0.842; in the assay with SW 900 (first compound 0.08 µM) it was 0.381; in the assay with SW 900 (first compound 0.253 µM), 0.49; in the assay on SW 900 (first compound 0.8 µM) it was 0.519. Moreover, the relative viability with SW 900 (first compound 2.53 µM) was 0.472.
